Assay results from publication PMC6562366 (Molecular Therapy Oncolytics, 2019).
pIC50: −log10 of the molar value.

Molecular target: PIM-2 (Homo sapiens, UniProt Q9P1W9)
Experiment: radiometric filter-binding kinase assay, recombinant kinase, dose-response
Type: biochemical

PIM-2, sequence (Q9P1W9 whole entry): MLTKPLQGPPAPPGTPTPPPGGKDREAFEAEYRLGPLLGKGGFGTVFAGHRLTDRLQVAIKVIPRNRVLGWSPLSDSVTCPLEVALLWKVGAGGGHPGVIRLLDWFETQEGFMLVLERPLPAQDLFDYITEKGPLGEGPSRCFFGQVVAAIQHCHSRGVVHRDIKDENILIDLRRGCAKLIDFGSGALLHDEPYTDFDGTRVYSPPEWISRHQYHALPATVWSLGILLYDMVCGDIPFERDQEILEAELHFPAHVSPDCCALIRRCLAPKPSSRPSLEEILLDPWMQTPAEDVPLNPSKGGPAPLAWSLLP

C/C(O)=C(\C#N)C(=O)Nc1ccc(C(F)(F)F)cc1 [Ter, Teriflunomide]
pIC50: 3.59
